Target: T1, human recombinant OX2 (hOX2) receptor expressed in CHO cells (Homo sapiens, UniProt O43614)
T1 construct: host or cells: CHO cells (hOX2-CHO)
T1 sequence (O43614 1-444): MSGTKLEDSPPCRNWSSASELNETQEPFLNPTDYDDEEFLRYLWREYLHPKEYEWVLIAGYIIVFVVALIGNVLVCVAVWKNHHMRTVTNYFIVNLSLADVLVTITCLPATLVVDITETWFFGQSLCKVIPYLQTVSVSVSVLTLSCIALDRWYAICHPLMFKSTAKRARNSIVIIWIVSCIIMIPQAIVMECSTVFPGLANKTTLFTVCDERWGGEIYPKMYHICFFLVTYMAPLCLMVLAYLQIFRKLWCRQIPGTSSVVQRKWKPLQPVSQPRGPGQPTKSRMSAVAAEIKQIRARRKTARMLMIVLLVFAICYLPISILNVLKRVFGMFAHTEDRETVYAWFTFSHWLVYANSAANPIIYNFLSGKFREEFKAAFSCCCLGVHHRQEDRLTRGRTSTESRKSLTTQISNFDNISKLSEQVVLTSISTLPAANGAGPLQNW
Assay: IP-1 accumulation assay (IP-One HTRF) in hOX2-CHO cells
Assay type: cell-based
Conditions: 60 min at 37° C., 11 points CRC, response as % of maximal OX-A response
Method in brief: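 CHO cells expressing hOX2, 20,000 cells/well in HBSS with 20 mM HEPES pH 7.4, 50 mM LiCl, 0.1% BSA; 11-point compound series, 0.5% DMSO final, 60 min at 37 °C. IP-1 by HTRF (665/615 ratio) after 60 min at room temperature, as % of maximal OX-A response; EC50 by four-parameter logistic fit, mean of ≥2 experiments in duplicate.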

Compound | EC50
CS(=O)(=O)NCC(CO[C@H]1CC[C@@H](c2ccccc2)CC1)n1c(=O)ccc2ccccc21 (stereo partly drawn) [Example 2ak, N-[2-(2-oxo-1,2-dihydroquinolin-1-yl)-3-{[(CIS)-4-phenylcyclohexyl]oxy}propyl]methanesulfonamide] | > 10000 nM
Cc1cc(C)c(=O)n(C(CNS(=O)(=O)C2CC2)CO[C@H]2CC[C@@H](c3cccc(F)c3)CC2)c1 (stereo partly drawn) [Example 2al, N-[2-(3,5-dimethyl-2-oxo-1,2-dihydropyridin-1-yl)-3-{[(CIS)-4-(3-fluorophenyl)cyclohexyl]oxy}propyl]cyclopropanesulfonamide] | < 100 nM
Cc1cc(C)c(=O)n(C(CNS(=O)(=O)CC(F)(F)F)CO[C@H]2CC[C@@H](c3cccc(F)c3)CC2)c1 (stereo partly drawn) [Example 2ap, N-[2-(3,5-dimethyl-2-oxo-1,2-dihydropyridin-1-yl)-3-{[(CIS)-4-(3-fluorophenyl)cyclohexyl]oxy}propyl]-2,2,2-trifluoroethane-1-sulfonamide] | 100 to 1000 nM
Cc1cc(C)c(=O)n(C(CNS(=O)(=O)N(C)C)CO[C@H]2CC[C@@H](c3cccc(F)c3)CC2)c1 (stereo partly drawn) [Example 2aq, 1-{1-[(dimethylsulfamoyl)amino]-3-{[(CIS)-4-(3-fluorophenyl)cyclohexyl]oxy}propan-2-yl}-3,5-dimethyl-1,2-dihydropyridin-2-one] | < 100 nM
CS(=O)(=O)NCC(CO[C@H]1CC[C@@H](c2ccccc2)CC1)n1cccc(C#N)c1=O (stereo partly drawn) [Example 2e, N-[2-(3-cyano-2-oxo-1,2-dihydropyridin-1-yl)-3-{[(CIS)-4-phenylcyclohexyl]oxy}propyl]methanesulfonamide] | 1000 to 10000 nM
CS(=O)(=O)NCC(CO[C@H]1CC[C@@H](c2ccccc2)CC1)n1cccc(F)c1=O (stereo partly drawn) [Example 2f, N-[2-(3-fluoro-2-oxo-1,2-dihydropyridin-1-yl)-3-{[(CIS)-4-phenylcyclohexyl]oxy}propyl]methanesulfonamide] | 1000 to 10000 nM
Cc1ccc(=O)n(C(CNS(C)(=O)=O)CO[C@H]2CC[C@@H](c3ccccc3)CC2)c1 (stereo partly drawn) [Example 2i, N-[2-(5-methyl-2-oxo-1,2-dihydropyridin-1-yl)-3-{[(CIS)-4-phenylcyclohexyl]oxy}propyl]methanesulfonamide] | 100 to 1000 nM
CS(=O)(=O)NCC(CO[C@H]1CC[C@@H](c2ccccc2)CC1)n1cc(C(F)(F)F)ccc1=O (stereo partly drawn) [Example 2l, N-{2-[2-oxo-5-(trifluoromethyl)-1,2-dihydropyridin-1-yl]-3-{[(CIS)-4-phenylcyclohexyl]oxy}propyl}methanesulfonamide] | > 10000 nM
CS(=O)(=O)NCC(CO[C@H]1CC[C@@H](c2ccccc2)CC1)n1cc(Cl)ccc1=O (stereo partly drawn) [Example 2p, N-[2-(5-chloro-2-oxo-1,2-dihydropyridin-1-yl)-3-{[(CIS)-4-phenylcyclohexyl]oxy}propyl]methanesulfonamide] | 1000 to 10000 nM
Cc1cc(C)c(=O)n(C(CNS(C)(=O)=O)CO[C@H]2CC[C@@H](c3ccccc3)CC2)c1 (stereo partly drawn) [Example 2s, N-[2-(3,5-dimethyl-2-oxo-1,2-dihydropyridin-1-yl)-3-{[(CIS)-4-phenylcyclohexyl]oxy}propyl]methanesulfonamide] | < 100 nM
COc1ccc(=O)n(C(CNS(C)(=O)=O)CO[C@H]2CC[C@@H](c3ccccc3)CC2)c1 (stereo partly drawn) [Example 2v, N-[2-(5-methoxy-2-oxo-1,2-dihydropyridin-1-yl)-3-{[(CIS)-4-phenylcyclohexyl]oxy}propyl]methanesulfonamide] | 1000 to 10000 nM
CS(=O)(=O)NCC(CO[C@H]1CC[C@@H](c2ccccc2)CC1)n1ccc(C(F)(F)F)cc1=O (stereo partly drawn) [Example 2w, N-{2-[2-oxo-4-(trifluoromethyl)-1,2-dihydropyridin-1-yl]-3-{[(CIS)-4-phenylcyclohexyl]oxy}propyl}methanesulfonamide] | > 10000 nM
Cc1cc(Br)cn(C(CNS(C)(=O)=O)CO[C@H]2CC[C@@H](c3ccccc3)CC2)c1=O (stereo partly drawn) [Example 2x, N-[2-(5-bromo-3-methyl-2-oxo-1,2-dihydropyridin-1-yl)-3-{[(CIS)-4-phenylcyclohexyl]oxy}propyl]methanesulfonamide] | 100 to 1000 nM
CS(=O)(=O)NCC(CO[C@H]1CC[C@@H](c2ccccc2)CC1)n1ccc(C#N)cc1=O (stereo partly drawn) [Example 2y, N-[2-(4-cyano-2-oxo-1,2-dihydropyridin-1-yl)-3-{[(CIS)-4-phenylcyclohexyl]oxy}propyl]methanesulfonamide] | > 10000 nM
Cn1cccc(C(CNS(C)(=O)=O)CO[C@H]2CC[C@@H](c3ccccc3)CC2)c1=O (stereo partly drawn) [Example 4, N-[2-(1-methyl-2-oxo-1,2-dihydropyridin-3-yl)-3-{[(CIS)-4-phenylcyclohexyl]oxy}propyl]methanesulfonamide] | 1000 to 10000 nM
Cc1cc(C(CNS(C)(=O)=O)CO[C@H]2CC[C@@H](c3ccccc3)CC2)c(=O)n(C)c1 (stereo partly drawn) [Example 5a, N-[2-(1,5-dimethyl-2-oxo-1,2-dihydropyridin-3-yl)-3-{[(CIS)-4-phenylcyclohexyl]oxy}propyl]methanesulfonamide] | 1000 to 10000 nM

Other lines, results leading:

EC50 | Compound
100 to 1000 nM | Cc1cc(C)c(=O)n(C(CNS(=O)(=O)CC(F)F)CO[C@H]2CC[C@@H](c3cccc(F)c3)CC2)c1 (stereo partly drawn) [Example 2ao, N-[2-(3,5-dimethyl-2-oxo-1,2-dihydropyridin-1-yl)-3-{[(CIS)-4-(3-fluorophenyl)cyclohexyl]oxy}propyl]-2,2-difluoroethane-1-sulfonamide]
< 100 nM | Cc1cc(C)c(=O)n(C(CNS(=O)(=O)CF)CO[C@H]2CC[C@@H](c3cccc(F)c3)CC2)c1 (stereo partly drawn) [Example 2at, N-[2-(3,5-dimethyl-2-oxo-1,2-dihydropyridin-1-yl)-3-{[(CIS)-4-(3-fluorophenyl)cyclohexyl]oxy}propyl]-1-fluoromethanesulfonamide]
< 100 nM | COCCS(=O)(=O)NCC(CO[C@H]1CC[C@@H](c2cccc(F)c2)CC1)n1cc(C)cc(C)c1=O (stereo partly drawn) [Example 2ax, N-[2-(3,5-dimethyl-2-oxo-1,2-dihydropyridin-1-yl)-3-{[(CIS)-4-(3-fluorophenyl)cyclohexyl]oxy}propyl]-2-methoxyethane-1-sulfonamide]
> 10000 nM | Cc1cc(C)c(=O)n(C(CNS(C)(=O)=O)COC2CCN(c3ncc(F)cn3)CC2)c1 (centres unmarked) [Example 2ay, N-[2-(3,5-dimethyl-2-oxo-1,2-dihydropyridin-1-yl)-3-{[1-(5-fluoropyrimidin-2-yl)piperidin-4-yl]oxy}propyl]methanesulfonamide]
< 100 nM | CCC[C@H]1CC[C@@H](OCC(CNS(=O)(=O)N(C)C)n2cc(C)cc(C)c2=O)CC1 (stereo partly drawn) [Example 2bb, 1-{1-[(dimethylsulfamoyl)amino]-3-{[(CIS)-4-propylcyclohexyl]oxy}propan-2-yl}-3,5-dimethyl-1,2-dihydropyridin-2-one]
100 to 1000 nM | Cc1cc(C)c(=O)n(C(CNS(=O)(=O)N(C)C)CO[C@H]2CC[C@@H](C3CC3)CC2)c1 (stereo partly drawn) [Example 2bc, 1-{1-[(dimethylsulfamoyl)amino]-3-{[(CIS)-4-cyclopropylcyclohexyl]oxy}propan-2-yl}-3,5-dimethyl-1,2-dihydropyridin-2-one]
> 10000 nM | Cc1cc(C)c(=O)n(C(CNS(C)(=O)=O)COC2CCC3(CCOC3)CC2)c1 (centres unmarked) [Example 2bd, N-[2-(3,5-dimethyl-2-oxo-1,2-dihydropyridin-1-yl)-3-{2-oxaspiro[4.5]decan-8-yloxy}propyl]methanesulfonamide]
1000 to 10000 nM | CS(=O)(=O)NCC(CO[C@H]1CC[C@@H](c2ccccc2)CC1)n1cccc(C(F)(F)F)c1=O (stereo partly drawn) [Example 2c, N-{2-[2-oxo-3-(trifluoromethyl)-1,2-dihydropyridin-1-yl]-3-{[(CIS)-4-phenylcyclohexyl]oxy}propyl}methanesulfonamide]
1000 to 10000 nM | Cc1ccn(C(CNS(C)(=O)=O)CO[C@H]2CC[C@@H](c3ccccc3)CC2)c(=O)c1 (stereo partly drawn) [Example 2d, N-[2-(4-methyl-2-oxo-1,2-dihydropyridin-1-yl)-3-{[(CIS)-4-phenylcyclohexyl]oxy}propyl]methanesulfonamide]
100 to 1000 nM | Cc1ccn(C(CNS(C)(=O)=O)CO[C@H]2CC[C@@H](c3ccccc3)CC2)c(=O)c1C (stereo partly drawn) [Example 2m, N-[2-(3,4-dimethyl-2-oxo-1,2-dihydropyridin-1-yl)-3-{[(CIS)-4-phenylcyclohexyl]oxy}propyl]methanesulfonamide]
1000 to 10000 nM | CS(=O)(=O)NCC(CO[C@H]1CC[C@@H](c2ccccc2)CC1)n1cc(OC(F)F)ccc1=O (stereo partly drawn) [Example 2q, N-{2-[5-(difluoromethoxy)-2-oxo-1,2-dihydropyridin-1-yl]-3-{[(CIS)-4-phenylcyclohexyl]oxy}propyl}methanesulfonamide]
1000 to 10000 nM | CS(=O)(=O)NCC(CO[C@H]1CC[C@@H](c2ccccc2)CC1)n1cc(C#N)ccc1=O (stereo partly drawn) [Example 2r, N-[2-(5-cyano-2-oxo-1,2-dihydropyridin-1-yl)-3-{[(CIS)-4-phenylcyclohexyl]oxy}propyl]methanesulfonamide]
1000 to 10000 nM | CS(=O)(=O)NCC(CO[C@H]1CC[C@@H](c2ccccc2)CC1)n1ccc2cccnc21 (stereo partly drawn) [Example 2z, N-(2-{1H-pyrrolo[2,3-b]pyridin-1-yl}-3-{[(CIS)-4-phenylcyclohexyl]oxy}propyl)methanesulfonamide]

From US20240360081A1, “SULFONAMIDE OREXIN RECEPTOR AGONISTS AND USES THEREOF” (Jazz Pharmaceuticals Ireland Limited, priority 2021, published 2024)
